The results in this text go back to patent US11116767B2, “3,5-disubstituted pyrazoles useful as checkpoint kinase 1 (Chk1) inhibitors, and their preparations and applications” (PHARMAENGINE, INC., priority 2016, dated 2021).

The target of one data set is T1, Chk2 (Homo sapiens, UniProt O96017).
T1 construct: purchased Carna 02-162
The data set is described as follows: biochemical. The note with it: ADP-Glo; read-out: Chk2 in vitro enzyme activity (grade).

Data set [1] in a line: Pharmacokinetics study in rats, intravenous. The format is in vivo, SD rats. As to conditions: rat, in vivo, iv. As for the experimental part: Compounds were formulated in 30% SEB-β-CD (Zhiyuan Bio-technology) with 1 molar equivalents of HCl (pH adjusted to 3-5). Male SD rats (280-350 g) were purchased from Medical Laboratory Animal Center of Guangdong. Three rats were used for each PK study. […] At various time points after compound administration, approximately 0.2˜0.3 mL of blood was collected by cutting the end of tail into tubes containing K2-EDTA. The plasma was separated via centrifugation and stored at −80° C. A PE Sciex API-3000 LC-MS/MS system (Applied Biosystems, Inc.) was used to analyze compound concentrations in plasma.
PK studies of ChK1 inhibitors were conducted in rats after intravenous administration at 10 mg/kg. […]. […]

For another data set, the system named is HT-29. In words: Cancer cell growth inhibition assay (CellTiter-Glo), HT-29. The class given is cell-based, Human. The note with it: Homo sapiens, HT-29; 72 hours, cellular ATP content; read-out: HT-29 anti cell proliferation activity (grade).

T1 sequence (O96017 whole entry): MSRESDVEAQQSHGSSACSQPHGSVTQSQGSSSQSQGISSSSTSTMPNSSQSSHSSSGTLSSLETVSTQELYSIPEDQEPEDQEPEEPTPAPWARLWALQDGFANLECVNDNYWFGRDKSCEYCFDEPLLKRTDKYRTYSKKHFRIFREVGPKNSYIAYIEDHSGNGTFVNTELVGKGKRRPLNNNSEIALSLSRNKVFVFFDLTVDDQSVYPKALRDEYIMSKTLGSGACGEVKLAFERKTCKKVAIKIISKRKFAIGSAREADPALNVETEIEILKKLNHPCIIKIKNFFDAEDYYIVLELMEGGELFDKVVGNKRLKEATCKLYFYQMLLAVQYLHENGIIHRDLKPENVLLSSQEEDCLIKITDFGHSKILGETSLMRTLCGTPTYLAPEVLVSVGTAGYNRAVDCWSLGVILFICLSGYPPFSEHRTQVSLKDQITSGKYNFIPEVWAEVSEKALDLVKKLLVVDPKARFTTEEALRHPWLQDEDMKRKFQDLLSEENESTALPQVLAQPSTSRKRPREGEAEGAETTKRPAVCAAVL

What is called AUC(0-inf) is total exposure, with the tail of the curve extrapolated. As usually defined, the AUC(0-t) is the area under the concentration-time curve up to a stated or last time point. A lower AUC(0-t) goes with less exposure. By MRT is commonly meant a mean duration of stay, worked out from the concentration-time curve. The clearance is the volume of plasma or blood freed of the substance per unit of time. A lower clearance goes with a low capacity for elimination. One may read the half-life as the time in which the quantity being followed falls by half. The low end stands for rapid decline, the high end for slow decline. What is called Vd is the apparent volume that relates the amount in the body to the concentration in plasma or blood. Regarding `COc1cc(F)cc(OCCCN)c1-c1cc(Nc2cnc(C#N)cn2)n[nH]1` [Compound 3, 5-(5-(2-(3-Aminopropoxy)-4-fluoro-6-methoxyphenyl)-1H-pyrazol-3-ylamino)pyrazine-2-carbonitrile], the IC50 at Chk2 is 50 to 100 nM. In data set [1] (male, SD, 10 mg/kg), this compound had an AUC(0-inf) of 4640 ng·h/mL, an AUC(0-t) of 4530 ng·h/mL, a mean residence time MRT of 2.8 h and a clearance of 38.3 mL/min/kg. The same compound showed a half-life in data set [1] (male, SD, 10 mg/kg) of 3.8 h. Moreover, in data set [1] (male, SD, 10 mg/kg, Vd), the Vd was determined as 12.3 L/kg. In data set [1] (male, SD, 10 mg/kg, Vss), the Vd was 6.4 L/kg. For the same compound, the “half-life and exposure compared with LY2606368” value in data set [1] was “longer half-life and higher exposure than LY2606368”. For the same compound, the IC50 in the data set with HT-29 was in the range of 10 to 50 nM.
